Data: PMC9237417, “HupZ, a Unique Heme-Binding Protein, Enhances Group A Streptococcus Fitness During Mucosal Colonization” (Frontiers in Cellular and Infection Microbiology, 2022)

Key:
tag-less HupZ = target: T1, tag-less HupZ (Streptococcus pyogenes, UniProt Q9A0B9); assay: UV-VIS Soret shift of heme-loaded protein; assay type: binding; conditions: holo protein (heme b bound); 1.6 mM imidazole as axial ligand of the heme iron; pH 7.4
T1 construct: gene SPy_0844; full-length HupZ from His-MBP-HupZ, tag cut by TEV protease leaving a serine residue; expressed in E. coli; 15 kD on SDS-PAGE

MBP-HupZ = target: T2, MBP-HupZ (Streptococcus pyogenes, UniProt Q9A0B9); assay: UV-VIS Soret shift of heme-loaded protein; assay type: binding; conditions: holo protein (heme b bound); 1.6 mM imidazole as axial ligand of the heme iron; pH 7.4
T2 construct: gene SPy_0844; N-terminal MBP fusion kept (pKV135); E. coli BL21(DE3); monomer on native PAGE
T2 sequence (Q9A0B9 entry or part of it): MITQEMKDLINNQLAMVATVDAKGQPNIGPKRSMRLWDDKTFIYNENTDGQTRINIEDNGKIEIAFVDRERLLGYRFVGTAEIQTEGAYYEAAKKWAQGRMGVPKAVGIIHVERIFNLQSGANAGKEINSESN

T1 sequence (Q9A0B9 entry or part of it): as above

c1c[nH]cn1 [imidazole]
UV-VIS Soret shift of heme-loaded protein (tag-less HupZ): exogenous imidazole can coordinate the iron in holo tag-less and MBP-HupZ
UV-VIS Soret shift of heme-loaded protein (MBP-HupZ): exogenous imidazole can coordinate the iron in holo tag-less and MBP-HupZ
